Read-outs that look alike come from different tables or passages of the source.
Key:
MDA-MB-231 cells [1] = tested on: MDA-MB-231 cells
Procedure: (§4) The cells were incubated at 37° C. in a humidified atmosphere with 5% CO2.
(§5) 100 μL of cells were added to each well of a 96 well microtiter plate at a concentration of 4×10^4 cells/mL and incubated overnight to allow proper adhesion. (RPMI 8226 cells were plated at 4×10^5 cells/mL). The cells were treated with the panel of test compounds at a series of concentrations, along with vehicle control DMSO and untreated cells as controls. After 48 h incubation, 20 μL of MTT reagent (3-(4,5-dimethylthiazol-2-yl)-2,5-diphenyltetrazolium bromide) in PBS (5 mg/mL) was added to each well of the plates. The plate was incubated for 2 h at 37° C. For adherent cell lines, the media was removed from each well of the plate and the resulting formazan crystals dissolved in 100 μL of DMSO. For RPMI 8226 cells, 200 ul of DMF/SDS mix (50% DMF. 10% w/v SDS pH<4) was used to solubilize the formazan crystals. Optical density (OD) at 490 nm was measured using a microplate reader. Cells treated with 1 μM phenyl arsine oxide (PAO) served as a positive cell-killing control. Technical replicates of these assays were performed in biological quadruplicate, and the three best values were used for analysis in order to eliminate outliers. Data presented are the average IC50 value calculated from at least 3 technical replicates with the corresponding standard deviation.

[2] = biological target: T1, chymotrypsin-like activity of the 26S proteasome (Homo sapiens, UniProt P28074); assay: Proteasome assay, chymotrypsin-like (ChT-L) activity, Suc-LLVY-AMC, Jurkat cell lysate; type: biochemical; settings: ± S.D.
T1 construct: endogenous in cells; host or cells: Jurkat (ATCC TIB-152, E6-1 clone) cell lysate
T1 sequence (P28074 60-263): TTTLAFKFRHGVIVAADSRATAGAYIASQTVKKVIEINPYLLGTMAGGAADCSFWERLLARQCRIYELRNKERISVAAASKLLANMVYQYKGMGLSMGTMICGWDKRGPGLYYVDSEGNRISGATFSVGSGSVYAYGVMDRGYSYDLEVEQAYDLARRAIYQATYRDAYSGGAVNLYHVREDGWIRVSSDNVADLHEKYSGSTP
Procedure: (§1) The lysate was stored at −80° C. until the sample was used for the proteasome assay.
(§2) The compounds were diluted with lysis buffer; 10 μL of the compound-containing solution was added to the test wells at ten times the final concentration. […] The results are reported as the average of at least 3 technical replicates of IC50 values for proteasome inhibition.

MCF7 cells [3] = tested on: MCF7 cells
Procedure: as §4, §5

[4] = tested on: cancer cells (MCF7, MDA-MB-231, RPMI 8226)
Procedure: as §5

[5] = biological target: T2, trypsin-like activity of the 26S proteasome (Homo sapiens, UniProt Q99436); assay: Proteasome assay, trypsin-like (T-L) activity, SUC-RLR-AMC, Jurkat cell lysate; type: biochemical; settings: Table 3, P2/P3 analogues; ± S.D.; read-out: Proteasome Inhibition T-L-like IC50
T2 construct: endogenous in cells; host or cells: Jurkat (ATCC TIB-152, E6-1 clone) cell lysate
T2 sequence (Q99436 44-277): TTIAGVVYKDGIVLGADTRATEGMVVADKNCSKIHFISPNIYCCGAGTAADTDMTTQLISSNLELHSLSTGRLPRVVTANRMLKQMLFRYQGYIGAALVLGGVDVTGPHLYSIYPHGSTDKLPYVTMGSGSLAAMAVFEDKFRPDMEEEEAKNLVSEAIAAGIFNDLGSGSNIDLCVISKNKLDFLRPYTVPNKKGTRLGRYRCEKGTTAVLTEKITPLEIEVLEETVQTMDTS
Procedure: as §1, §2

RPMI 8226 cells [6] = tested on: RPMI 8226 cells
[7] = biological target: T3, immunoproteasome iβ5 subunit (Homo sapiens, UniProt P20618+P28062); assay: Subunit selectivity, purified immunoproteasome iβ5; type: biochemical; settings: 8 μg/mL purified iCP; ± SD; read-out: iβ5 IC50
T3 construct: purchased Enzo Life Sciences
Procedure: as §2
(§3) Values and standard deviations were calculated from an assay performed in biological triplicate.

MDA-MB-231 cells [8] = assay: MTT assay cytotoxicity MDA-MB-231
Procedure: as §4, §5

[9] = biological target: T4, yeast proteasome yβ5 subunit (Saccharomyces cerevisiae, UniProt P23724+P30656); assay: Subunit selectivity, purified yeast proteasome yβ5; type: biochemical; settings: 8 μg/mL purified yCP; ± SD; read-out: yβ5 IC50
T4 construct: measured using 8 μg/mL of purified yCP or iCP
Procedure: as §2, §3

[10] = biological target: T5, yeast proteasome yβ1 subunit (Saccharomyces cerevisiae, UniProt P25043+P38624); assay: Subunit selectivity, purified yeast proteasome yβ1; type: biochemical; settings: 8 μg/mL purified yCP; ± SD; read-out: yβ1 IC50
T5 construct: measured using 8 μg/mL of purified yCP or iCP
Procedure: as §2, §3

RPMI 8226 cells [11] = assay: MTT assay cytotoxicity RPMI 8226
MCF7 cells [12] = assay: MTT assay cytotoxicity MCF7
Procedure: as §4, §5

[13] = biological target: T6, β5 subunit of the 26S yeast proteasome (yCP) (Saccharomyces cerevisiae, UniProt P23724+P30656); assay: Protein-drug co-crystal structure; type: binding; settings: X-ray crystallography
T6 construct: measured using 8 μg/mL of purified yCP or iCP
Procedure: The binding mode of compound 11a in the yeast proteasome was examined. The yeast proteasome (yCP) has high homology with mammalian proteasomes but is easier to crystallize. Compound 11a was incubated at a high concentration with active yCP, and the enzyme-inhibitor complex was analyzed using X-ray crystallography.
Compound 11a is positioned in a kinked β-sheet-like conformation that is stabilized by hydrogen bonding with Thr21 and Gly47. The PI is further stabilized by the hydrophobic interaction of P3, whereas P2 and P4 lack any direct interactions within the binding pocket. The PI prevents the regeneration of the Thr1 catalytic site by complexing the water molecule generated by the hydrolysis of the β-lactone. The water molecule is stabilized in the binding pocket by residues Thr1, Ser131, and the hydroxyl group of the hydrolyzed lactone. […] The biological effects of P2 and P4 can be attributed to the pharmacokinetics of the cystargolide scaffold instead of binding to the β5 subunit of the proteasome.

[14] = biological target: T7, yeast proteasome yβ2 subunit (Saccharomyces cerevisiae, UniProt P25043+P25451); assay: Subunit selectivity, purified yeast proteasome yβ2; type: biochemical; settings: 8 μg/mL purified yCP; ± SD; read-out: yβ2 IC50
T7 construct: measured using 8 μg/mL of purified yCP or iCP
Procedure: as §2, §3

[15] = tested on: cancer cells (MCF7, MDA-MB-231, RPMI 8226); assay: MTT cytotoxicity, cell line not given
[16] = tested on: MCF-7 breast cancer cell line; assay: Drug deactivation by serum: cytotoxicity towards MCF-7 in FBS, NBS or human serum; type: cell-based; settings: MCF-7 cytotoxicity
Procedure: The deactivation of compounds was evaluated by testing the toxicity of compounds 8 and 12a in three different types of serums (i.e., fetal bovine serum (FBS), newborn bovine serum (NBS), and human serum). FBS is taken during the development of a calf fetus, so the serum has less protein associated with the innate immune system, and less protein altogether compared to NBS and human serum. […] The structural optimization of compound 12a improved the serum stability of the drug: P3 was changed from isopropyl to CH2OBn, and P4 was changed from OBn to NHBn. The OBn group of P4 was more sensitive to deactivation than NHBn.
The MCF-7 cells were cultured in three different types of serum. Assays were performed in biological triplicate, and the data points are reported with the corresponding standard deviation.

CC[C@H](C)[C@@H]1C(=O)O[C@H]1C(=O)N[C@H](C(=O)N[C@@H](CC(C)C)C(=O)OCc1ccccc1)C(C)C [Compound 10i, Benzyl((2R,3S)-3-((S)-sec-butyl)-4-oxooxetane-2-carbonyl)-L-valyl-L-leucinate]
IC50 (MDA-MB-231 cells [1]): 287 ± 136 nM
IC50 ([2]; Table 3, P2/P3 analogues, read-out: Proteasome Inhibition ChT-like IC50): 7.8 ± 1.6 nM
IC50 (MCF7 cells [3]): 351 ± 31 nM
cytotoxicity IC50 for all three cell lines tested (in words) [4]: midrange nanomolar
IC50 [5]: 1350 ± 172 nM
IC50 (RPMI 8226 cells [6]): 156 ± 96 nM

C=CCOC(=O)[C@@H](NC(=O)[C@@H](NC(=O)[C@@H]1OC(=O)[C@H]1[C@@H](C)CC)C(C)C)C(C)C [Compound 11a, Allyl((2R,3S)-3-((S)-sec-butyl)-4-oxooxetane-2-carbonyl)-L-valyl-L-valinate]
IC50 [7]: 41.2 ± 15.2 nM
IC50 (MDA-MB-231 cells [8]; read-out: Cytotoxicity MDA-MB-231 IC50, Table 4, MTT, 48 h): 275 ± 112 nM
IC50 [9]: 19.5 ± 0.8 nM
IC50 [10]: 779 ± 42 nM
IC50 (RPMI 8226 cells [11]; read-out: Cytotoxicity RPMI 8226 IC50, Table 4, MTT, 48 h): 94 ± 15 nM
IC50 (MCF7 cells [12]; read-out: Cytotoxicity MCF7 IC50, Table 4, MTT, 48 h): 311 ± 82 nM
binding mode in the crystal structure [13]: binds covalently to Thr1Oγ at the active site of subunit β5 of the yCP
IC50 ([2]; Table 4, P4 analogues, read-out: Proteasome Inhibition ChT-like IC50): 11.6 ± 2.8 nM
IC50 [14]: > 10000 nM

CC[C@H](C)[C@@H]1C(=O)O[C@H]1C(=O)N[C@H](C(=O)N[C@@H](COCc1ccccc1)C(=O)NCc1ccccc1)C(C)C [Compound 12a]
times less cytotoxic than carfilzomib [15]: about 10 times
IC50 [7]: 33 ± 13.4 nM
fold decrease in activity with NBS or human serum instead of FBS [16]: < 10 fold
IC50 (MDA-MB-231 cells [8]; Homo sapiens, MDA-MB-231, read-out: Cytotoxicity MDA-MB-231 IC50): 56.3 ± 3.09 nM
IC50 [9]: 8.2 ± 1.4 nM
IC50 [10]: 20400 ± 12900 nM
IC50 (RPMI 8226 cells [11]; Homo sapiens, RPMI-8226, read-out: Cytotoxicity RPMI 8226 IC50): 28.8 ± 1.09 nM
IC50 (MCF7 cells [12]; Homo sapiens, MCF7, read-out: Cytotoxicity MCF7 IC50): 93.9 ± 2.94 nM
IC50 ([2]; Table 5, read-out: Proteasome Inhib. ChT-L IC50): 0.647 ± 0.021 nM
IC50 [14]: 13600 ± 5490 nM
